Where two headings read alike, the source gives them in different places.
Experiments:
[1] = Plasma pharmacokinetics of docetaxel (HPLC-MS/MS); type: in vivo; conditions: human, docetaxel 75 mg m^−2 IV + BIBF 1120 250 mg BID; for half-life: read-out: t1/2, gMean (gCV%) (converted); for Tmax / AUC(0-inf) / Cmax: iv; for Tmax: read-out: tmax, median and range; for AUC(0-inf): read-out: AUC0−∞, gMean (gCV%); for Cmax: read-out: Cmax, gMean (gCV%)
Procedure: Peripheral blood was collected on days 1, 2, 3, 8, and 15 of TCs 1 and 2, and on days 2 and 15 of TCs 3–6 to perform the PK/pharmacodynamic (PD) analysis. Plasma concentrations of BIBF 1120 were determined after the first dose over the time interval 0–24 h on day 2 of TCs 1 and 2 to investigate single-dose PK characteristics of BIBF 1120 on the day after administration of single doses of docetaxel. Levels of BIBF 1120 were also determined on days 8 and 15 of TCs 1 and 2 to investigate steady-state levels.
Plasma concentrations of BIBF 1120 and docetaxel were analysed by a validated method using high-performance liquid chromatography coupled with tandem mass spectrometry (HPLC-MS/MS) in the Department of Drug Metabolism and Pharmacokinetics (Boehringer Ingelheim Pharma GmbH & Co KG, Biberach, Germany). The assay comprises sample clean-up by automated solid-phase extraction in a 96-well plate format. Chromatography was achieved on an analytical C18 reversed phase HPLC column with gradient elution. The substance was detected and quantified by HPLC-MS/MS using electrospray ionisation in the positive ion mode. Docetaxel was analysed by HPLC-MS/MS using paclitaxel as an internal standard. The assay comprises sample clean-up by liquid–liquid extraction and chromatography on an analytical C18 reversed phase HPLC column with isocratic elution. […] The lower limit of quantification for BIBF 1120 and metabolites was 0.5 ng ml^−1 plasma, using a plasma volume of 200 μl. For docetaxel, the lower limit was 2.5 ng ml^−1 plasma, using a plasma volume of 100 μl.
The calculated parameters were plasmatic peak concentrations following the first dose (Cmax), half-life time (t1/2), area under the plasma concentration–time curve (AUCt), apparent clearance after oral administration, and apparent volume of distribution during the terminal phase.

[2] = test system: HRPC; conditions: cited from earlier work

Structure (SMILES) | half-life ([1]; treatment cycle 2 (n=12)) | Tmax ([1]; treatment cycle 1 (n=12)) | Tmax ([1]; treatment cycle 2 (n=12)) | half-life ([1]; male, treatment cycle 1 (n=12)) | AUC(0-inf) ([1]; male, treatment cycle 1 (n=12)) | Cmax ([1]; male, treatment cycle 1 (n=12)) | AUC(0-inf) ([1]; male, treatment cycle 2 (n=12)) | Cmax ([1]; male, treatment cycle 2 (n=12)) | PSA responses ([2]; docetaxel monotherapy or with estramustine, phase III, first-line metastatic HRPC, ref Petrylak et al, 2004, Tannock et al) | Median survival ([2]; docetaxel with corticosteroid in HRPC, ref Petrylak et al, 2004, Tannock et al, Berthold et al, 2008) | PSA response rates ([2]; HRPC patients, ref Chi et al, 2008, Dror Michaelson et al, 2009, Sonpavde et al, 2010)
CC(=O)O[C@@]12CO[C@@H]1C[C@H](O)[C@@]1(C)C(=O)[C@H](O)C3=C(C)[C@@H](OC(=O)[C@H](O)[C@@H](NC(=O)OC(C)(C)C)c4ccccc4)C[C@@](O)([C@@H](OC(=O)c4ccccc4)[C@H]21)C3(C)C [docetaxel] | 19.4 h | 1.02 h | 1.01 h | 20.2 h | 1860 ng·h/mL | 1510 ng/mL | 2460 ng·h/mL | 1980 ng/mL | 45–50% | < 20 months | –
CCN(CC)CCNC(=O)c1c(C)[nH]c(/C=C2\C(=O)Nc3ccc(F)cc32)c1C [sunitinib] | – | – | – | – | – | – | – | – | – | – | 3.6–12.1%
